pIC50: −log10 of the molar value. Structures can show the parent of a compound that is named as a salt.

T1 sequence (I3LUI7 19-1212): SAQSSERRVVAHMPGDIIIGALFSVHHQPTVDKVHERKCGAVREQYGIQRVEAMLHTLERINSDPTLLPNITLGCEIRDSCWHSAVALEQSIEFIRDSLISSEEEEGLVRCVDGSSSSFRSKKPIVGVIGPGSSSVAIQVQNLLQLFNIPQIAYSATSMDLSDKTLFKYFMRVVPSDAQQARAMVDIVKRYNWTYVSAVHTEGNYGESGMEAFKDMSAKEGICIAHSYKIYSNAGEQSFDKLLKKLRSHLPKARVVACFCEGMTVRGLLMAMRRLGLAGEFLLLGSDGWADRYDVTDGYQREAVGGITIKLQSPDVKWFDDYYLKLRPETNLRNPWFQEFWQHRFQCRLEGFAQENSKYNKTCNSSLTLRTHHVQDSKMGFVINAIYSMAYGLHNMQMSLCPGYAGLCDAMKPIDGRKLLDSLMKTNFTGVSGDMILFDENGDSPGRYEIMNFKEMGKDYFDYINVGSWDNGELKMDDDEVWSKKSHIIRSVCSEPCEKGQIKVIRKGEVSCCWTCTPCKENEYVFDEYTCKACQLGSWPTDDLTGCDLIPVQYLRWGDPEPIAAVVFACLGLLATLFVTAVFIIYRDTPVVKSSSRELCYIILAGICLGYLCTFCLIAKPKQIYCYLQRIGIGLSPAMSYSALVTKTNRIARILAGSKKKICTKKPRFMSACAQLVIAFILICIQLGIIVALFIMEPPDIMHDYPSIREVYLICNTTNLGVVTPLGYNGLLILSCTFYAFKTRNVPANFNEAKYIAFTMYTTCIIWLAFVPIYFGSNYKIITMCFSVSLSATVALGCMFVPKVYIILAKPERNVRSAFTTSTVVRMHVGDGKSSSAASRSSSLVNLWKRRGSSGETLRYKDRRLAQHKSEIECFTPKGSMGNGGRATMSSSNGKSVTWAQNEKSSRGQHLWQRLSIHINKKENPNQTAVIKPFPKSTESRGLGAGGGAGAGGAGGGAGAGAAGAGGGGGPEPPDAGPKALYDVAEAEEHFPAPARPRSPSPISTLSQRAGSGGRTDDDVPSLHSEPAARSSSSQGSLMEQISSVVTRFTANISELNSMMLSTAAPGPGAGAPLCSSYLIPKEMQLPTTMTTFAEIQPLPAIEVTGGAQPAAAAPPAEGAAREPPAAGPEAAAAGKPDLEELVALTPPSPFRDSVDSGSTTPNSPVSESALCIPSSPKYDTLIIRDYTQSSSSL

The first assay concerns the target T1, mGluR5 receptor (Sus scrofa, UniProt I3LUI7).
T1 construct: 450 μg of protein from brain homogenate with 5 nM ^3[H]-MPEP; from tissue; host or cells: pig brain halves without medulla, cerebellum and pons
Nature of the assay: [3H]-MPEP mGluR5 receptor binding assay (pig brain homogenate). The conditions noted are these: 5 nM [3H]-MPEP, read-out: IC50 mGluR5 Receptor (pig) [^3H]-MPEP Bond. In short, it runs like this: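 Radioligand displacement of 5 nM [3H]-MPEP from pig brain homogenate (450 μg protein; medulla, cerebellum and pons removed) in 20 mM Hepes pH 8.0. Compounds were tested at 10 μM, incubated 60 min at room temperature, then filtered and counted by scintillation. Non-specific binding was defined with 10 μM MPEP.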
Consider `O=C1COCC(=O)N1Cc1cc(-c2ccc3ncnc(NC4CC4)c3c2)ccc1F` [Example 189, 4-(5-(4-(cyclopropylamino)quinazolin-6-yl)-2-fluorobenzyl)morpholine-3,5-dione], for which the pIC50 is 6.68. As to `CC(=O)N(Cc1cccc(-c2ccc3ncnc(NC4CC4)c3c2)c1F)C1CC1` [Example 191, N-cyclopropyl-N-(3-(4-(cyclopropylamino)quinazolin-6-yl)-2-fluorobenzyl)acetamide], the pIC50 was 6.17.

Turning to `O=C1CCC(=O)N1Cc1cc(-c2ccc3ncnc(NC4CC4)c3c2)ccc1F` [Example 193, 1-(5-(4-(cyclopropylamino)quinazolin-6-yl)-2-fluorobenzyl)pyrrolidine-2,5-dione], the pIC50 is 6.57. Still for that read-out and setting: to `N#CCC(=O)N(Cc1cccc(-c2ccc3ncnc(NC4CC4)c3c2)c1F)C1CC1` [Example 197, 2-cyano-N-cyclopropyl-N-[3-(4-cyclopropylamino-quinazolin-6-yl)-2-fluoro-benzyl]-acetamide] belongs 6.18. The same measure, in the same setting: with `CNc1ncnc2ccc(-c3cccc(CN4C(=O)CCC4=O)c3)cc12` [Example 198, 1-[3-(4-methylamino-quinazolin-6-yl)-benzyl]-pyrrolidine-2,5-dione] the figure was 5.28; with `O=C1CCC(=O)N1Cc1cccc(-c2ccc3ncnc(NCc4ccccc4)c3c2)c1` [Example 199, 1-(3-(4-(benzylamino)quinazolin-6-yl)benzyl)pyrrolidine-2,5-dione], 5.90; with `O=C(CC(F)(F)F)N(Cc1cccc(-c2ccc3ncnc(NC4CC4)c3c2)c1)C1CC1` [Example 205, N-cyclopropyl-N-[3-(4-cyclopropylamino-quinazolin-6-yl)-benzyl]-3,3,3-trifluoro-propionamide; hydrochloride], 6.48.

With `CC(=O)N(Cc1cccc(-c2ccc3ncnc(NC4CC4)c3c2)c1)c1ccccc1` [Example 207, N-(3-(4-(cyclopropylamino)quinazolin-6-yl)benzyl)-N-phenylacetamide hydrochloride], the pIC50 was 5.14.

Consider `CS(=O)(=O)N(Cc1cccc(-c2ccc3ncnc(NC4CC4)c3c2)c1)C1CCCC1` [Example 210, N-cyclopentyl-N-(3-(4-(cyclopropylamino)quinazolin-6-yl)benzyl)methane sulfonamide], for which the negative logarithm of the IC50 (pIC50) was 5.22. Same read-out and setting: to `O=C1COCC(=O)N1Cc1cccc(-c2ccc3ncnc(NC4CC4)c3c2)c1` [Example 212, 4-(3-(4-(cyclopropylamino)quinazolin-6-yl)benzyl)morpholine-3,5-dione] belongs 7.00; to `CC(=O)N(CCc1ccccc1)Cc1cccc(-c2ccc3ncnc(NC4CC4)c3c2)c1` [Example 214, N-[3-(4-cyclopropylamino-quinazolin-6-yl)-benzyl]-N-phenethyl-acetamide], 5.16; to `CS(=O)(=O)N(Cc1cccc(-c2ccc3ncnc(NC4CC4)c3c2)c1)Cc1ccco1` [Example 215, N-(3-(4-(cyclopropylamino)quinazolin-6-yl)benzyl)-N-(furan-2-yl-methyl)methane sulfonamide], 5.44.

Consider `CC(=O)N(Cc1cccc(-c2ccc3ncnc(NC4CC4)c3c2)c1)Cc1ccco1` [Example 216, N-[3-(4-cyclopropylamino-quinazolin-6-yl)-benzyl]-N-furan-2-yl-methyl-acetamide], for which the pIC50 was 5.82. On to `O=C1CCCN1Cc1cccc(-c2ccc3ncnc(NC4CC4)c3c2)c1` [Example 217, 1-[3-(4-cyclopropylamino-quinazolin-6-yl)-benzyl]-pyrrolidine-2-one; hydrochloride], for which the negative logarithm of the IC50 (pIC50) is 6.29.

The same assay, now with this note: 10 μM compound, 5 nM [3H]-MPEP, read-out: % Inhibition of mGluR5 Receptor (pig) [^3H]-MPEP Bond at 10 μM.
As for `O=C(c1ccccc1C(F)(F)F)N(Cc1cccc(-c2ccc3ncnc(NC4CC4)c3c2)c1)C1CC1` [Example 167, N-cyclopropyl-N-[3-(4-cyclopropylamino-quinazolin-6-yl)-benzyl]-2-trifluoromethyl-benzamide], the inhibition at 10 µM stood at 98%.

Take `CCCC(=O)N(Cc1cccc(-c2ccc3ncnc(NC4CC4)c3c2)c1)C1CC1` [Example 168, N-cyclopropyl-N-[3-(4-cyclopropylamino-quinazolin-6-yl)-benzyl]-butyramide]: the inhibition at 10 µM came out at 90%. `O=C(c1ccco1)N(Cc1cccc(-c2ccc3ncnc(NC4CC4)c3c2)c1)C1CC1` [Example 169, furan-2-carboxylic acid cyclopropyl-[3-(4-cyclopropylamino-quinazolin-6-yl)-benzyl]-amide]: the inhibition at 10 µM stood at 91%. In the case of `O=C(c1ccccn1)N(Cc1cccc(-c2ccc3ncnc(NC4CC4)c3c2)c1)C1CC1` [Example 170, pyridine-2-carboxylic acid cyclopropyl-[3-(4-cyclopropylamino-quinazolin-6-yl)-benzyl]-amide], the inhibition at 10 µM worked out at 78%.

In the case of `COc1ccc(C(=O)N(Cc2cccc(-c3ccc4ncnc(NC5CC5)c4c3)c2)C2CC2)cc1` [Example 171, N-cyclopropyl-N-[3-(4-cyclopropylamino-quinazolin-6-yl)-benzyl]-4-methoxy-benzamide], the inhibition at 10 µM worked out at 100%. On the same count and under the same terms, to `O=C(c1ccccc1Cl)N(Cc1cccc(-c2ccc3ncnc(NC4CC4)c3c2)c1)C1CC1` [Example 172, 2-chloro-N-cyclopropyl-N-[3-(4-cyclopropylamino-quinazolin-6-yl)-benzyl]-benzamide] belongs 99%.

For the compound `CN(C)CC(=O)N(Cc1cccc(-c2ccc3ncnc(NC4CC4)c3c2)c1)C1CC1` [Example 173, N-cyclopropyl-N-[3-(4-cyclopropylamino-quinazolin-6-yl)-benzyl]-2-dimethylamino-acetamide], the inhibition at 10 µM is 30%. On the same count and under the same terms, with `O=C(Cc1ccccn1)N(Cc1cccc(-c2ccc3ncnc(NC4CC4)c3c2)c1)C1CC1` [Example 174, N-cyclopropyl-N-[3-(4-cyclopropylamino-quinazolin-6-yl)-benzyl]-2-pyridin-2-yl-acetamide] the figure was 97%; with `Cc1ccc(C(=O)N(C)Cc2cccc(-c3ccc4ncnc(NC5CC5)c4c3)c2)cc1` [Example 175, N-[3-(4-cyclopropylamino-quinazolin-6-yl)-benzyl]-4,N-dimethyl-benzamide], 85%. The same measure, in the same setting: with `N#Cc1cccc(C(=O)N(Cc2cccc(-c3ccc4ncnc(NC5CC5)c4c3)c2)C2CC2)c1` [Example 176, 3-cyano-N-cyclopropyl-N-[3-(4-cyclopropylamino-quinazolin-6-yl)-benzyl]-benzamide] the figure was 76%; with `O=C(c1ccc(C(F)(F)F)cc1F)N(Cc1cccc(-c2ccc3ncnc(NC4CC4)c3c2)c1)C1CC1` [Example 177, N-cyclopropyl-N-[3-(4-cyclopropylamino-quinazolin-6-yl)-benzyl]-2-fluoro-4-trifluoromethyl-benzamide], 97%; with `O=C(c1cccs1)N(Cc1cccc(-c2ccc3ncnc(NC4CC4)c3c2)c1)C1CC1` [Example 178, thiophene-2-carboxylic acid cyclopropyl-[3-(4-cyclopropylamino-quinazolin-6-yl)-benzyl]-amide], 84%. Still for that read-out and setting: with `O=C(c1ccc(Cl)nc1)N(Cc1cccc(-c2ccc3ncnc(NC4CC4)c3c2)c1)C1CC1` [Example 179, 6-chloro-N-cyclopropyl-N-[3-(4-cyclopropylamino-quinazolin-6-yl)-benzyl]-nicotinamide] the figure was 89%; with `COC(=O)CN(Cc1cccc(-c2ccc3ncnc(NC4CC4)c3c2)c1)C(=O)CC#N` [Example 190, methyl 2-(2-cyano-N-(3-(4-(cyclopropylamino)quinazolin-6-yl)benzyl)acetamido)acetate], 58%; with `O=C1C=CC(=O)N1Cc1cc(-c2ccc3ncnc(NC4CC4)c3c2)ccc1F` [Example 192, 1-(5-(4-(cyclopropylamino)quinazolin-6-yl)-2-fluorobenzyl)-1H-pyrrole-2,5-dione], 41%. For the compound `N#CCC(=O)N(Cc1cccc(-c2ccc3ncnc(NC4CC4)c3c2)c1)c1cccnc1` [Example 195, 2-cyano-N-[3-(4-cyclopropylamino-quinazolin-6-yl)-benzyl]-N-pyridin-3-yl-acetamide], the inhibition at 10 µM was found to be 40%. On the same count and under the same terms, to `CC(=O)N(CC#N)Cc1cccc(-c2ccc3ncnc(NC4CC4)c3c2)c1` [Example 200, N-cyanomethyl-N-[3-(4-cyclopropylamino-quinazolin-6-yl)-benzyl]-acetamide] belongs 40%. The same measure, in the same setting: with `CC(=O)OCN(Cc1cccc(-c2ccc3ncnc(NC4CC4)c3c2)c1)C(C)=O` [Example 203, {acetyl-[3-(4-cyclopropylamino-quinazolin-6-yl)-benzyl]-amino}-methyl acetate] the figure was 39%. As to `O=S1(=O)CCCN1Cc1cccc(-c2ccc3ncnc(NC4CC4)c3c2)c1` [Example 206, cyclopropyl-{6-[3-(1,1-dioxo-1λ^6-isothiazolidin-2-ylmethyl)-phenyl]-quinazoline-4-yl}-amine; hydrochloride], the inhibition at 10 µM was determined as 34%.

With `CC(=O)N(Cc1cccc(-c2ccc3ncnc(NC4CC4)c3c2)c1)C1CCCC1` [Example 209, N-cyclopentyl-N-(3-(4-(cyclopropylamino)quinazolin-6-yl)benzyl)acetamide], the inhibition at 10 µM was determined as 63%. The same measure, in the same setting: to `COCCN(Cc1cccc(-c2ccc3ncnc(NC4CC4)c3c2)c1)C(C)=O` [Example 213, N-(3-(4-(cyclopropylamino)quinazolin-6-yl)benzyl)-N-(2-methoxyethyl)acetamide] belongs 32%.

The assay is the same for the next values; noted with them: IC50 mGluR5 Receptor (pig) [^3H]-MPEP Bond, 5 nM [3H]-MPEP.
On to `O=C(CF)N(Cc1cccc(-c2ccc3ncnc(NC4CC4)c3c2)c1)C1CC1` [Example 208, N-cyclopropyl-N-[3-(4-cyclopropylamino-quinazolin-6-yl)-benzyl]-2-fluoro-acetamide], for which the negative-log IC50 (pIC50) is 6.92.
